Laboratory results from patent US12653816B2, “Composition for inhibiting growth of cancer stem cells” (INDUSTRY-ACADEMIC COOPERATION FOUNDATION, YONSEI UNIVERSITY, priority 2020, dated 2026).

Key:
[1] = system: HS746T cell line; experiment: Cell viability assay (Cell Counting Kit-8), HS746T; assay type: cell-based, human; conditions: for antitumor effect (number of living cells) / antitumor effect (cell viability): treatment alone, 48 hours; for antitumor effect (number of living cells): cisplatin 5 and 10 μM, compounds 5 and 10 μg/ml, FIGS. 7A and 7B; for antitumor effect (cell viability): HS746T stem-like cells, various concentrations, FIG. 1
Description: (§1) In order to evaluate the ability to inhibit the growth or metastasis of cancer cells or cancer stem cells in the examples according to the present invention, the present inventors obtained MKN1 and HS746T, which are cell lines having human gastric cancer stem cell characteristics, and SNU601, YCC7 and NCIN87 cells, which are human gastric cancer cell lines, from the American Type Culture Collection (ATCC) and the Korean Cell Line Bank (KCRB). The cell lines were cultured in different culture media and culture conditions according to ATCC's or KCRB's guidelines. The MKN1, SNU601, and NCIN87 cell lines were cultured in RPMI1640 medium containing 10% fetal bovine serum (FBS), 2 mM L-glutamine, 100 U/ml penicillin and 100 μg/ml streptomycin, and the HS746T and YCC7 Cell lines were cultured in DMEM containing 10% FBS, 2 mM L-glutamine, 100 U/ml penicillin and 100 μg/ml streptomycin. All the cell lines were cultured at 37° C. under 5% CO2, and subjected to a mycoplasma contamination test.
(§2) Each of the cell lines cultured in the Preparation Example was dispensed into a well plate at a density of 1×10^4 cells per well, and cultured overnight at 37° C. under 5% CO2. Then, the HS746T and MKN1 cell lines, which are gastric cancer stem-like cells, and the YCC7 and NCIN87 cell lines, which are gastric cancer cells, were treated with various concentrations of each of cisplatin (CDDP), which is an anticancer drug currently frequently used in the treatment of gastric cancer patients, and the compound CCG-232601 which is an MRTF-A inhibitor. 100 μL of each cell culture and 10 μL of reaction buffer (CCK) were mixed together, placed in a 96-well plate, and incubated for 1 hour at room temperature, and then the absorbance at a wavelength of 450 nm was measured using a spectrophotometer (Synergy HTX Multi-Reader, BioTek, Winooski, VT, USA). At the same time, the number of cells in each sample was measured with a cell viability assay kit (Cell Counting Kit-8), and the measured value was converted so that the measured value for the same number of cells in each sample could be compared with the number of cells in the negative control group. The experimental results presented are the mean values of the repeated experiments.
The present inventors attempted to further confirm the therapeutic effects of the compounds CCG-222740 and CCG-203971, which are compounds other than the compound CCG-232601 corresponding to the MRTFA/SRF inhibitors, against cancer stem cells. As reviewed in Example 1 above, it has been confirmed that the gastric cancer cell line HS746T is of a stem cell-like gastric cancer type, and thus is resistant to the anticancer drug cisplatin. The HS746T cell line was treated with cisplatin and the compounds CCG-222740 and CCG-203971 corresponding to MRTFA/SRF inhibitors. For cell treatment, cisplatin was used at concentrations of 0 μM, 5 μM and 10 μM, and the compound CCG-222740 or CCG-203971 was used at concentrations of 0 μg/ml, 5 μg/ml and 10 μg/ml. The control group was treated with the same amount of DMSO as the compound used for each experimental group. After 48 hours, the number of living cells was measured using a cell viability assay kit (Cell Counting Kit-8), and the results are shown in FIGS. 7A and 7B.

[2] = system: human colonic myofibroblasts; conditions: cited from earlier work
[3] = system: murine model of skin injury; conditions: cited from earlier work
[4] = system: lung fibrosis lung fibroblasts; conditions: cited from earlier work
[5] = system: alpha smooth muscle actin protein; conditions: cited from earlier work
[6] = system: preclinical model of fibrosis; conditions: cited from earlier work
[7] = system: MKN1 cell line; experiment: Cell viability assay (Cell Counting Kit-8), MKN1; assay type: cell-based, human; conditions: for antitumor effect (cell viability): MKN1 stem-like cells, treatment alone, various concentrations, 48 hours, FIG. 1
Description: as §1, §2
Accordingly, in order to evaluate the effect of co-administration of the compound CCG-232601, the survival and growth inhibitory effects of administration of CCG-232601 and cisplatin (CDDP) alone or in combination to the MKN1 cell line were evaluated using a cell viability assay kit (Cell Counting Kit-8; CCK-8). In order to evaluate the effect of administration in combination compared to that of administration alone, 5 μg/ml of CCG-232601 was firstly administered to the MKN1 cell line, and after 24 hours, 5 μM cisplatin (CDDP) was secondarily administered. After 24 hours therefrom, the results were checked with a cell viability analysis kit (CCK-8 assay).

[8] = system: MKN1 cell line; experiment: Oxygen consumption rate and extracellular acidification rate (Seahorse), MKN1; assay type: cell-based, human
Description: (§3) In particular, in order to confirm that the compound CCG-232601 has an excellent inhibitory effect on cancer stem cell growth, the oxygen consumption rates (OCRs) and extracellular acidification rates (ECARs) of the stem-like cell lines HS746T and MKN1 having high resistance to metabolic stress were measured and the results are shown in FIG. 2. More specifically, each of the cell lines was seeded in Seahorse normal culture medium at 70 to 80% confluency, and mitochondrial oxidation and glycolytic activity were measured by measuring oxygen consumption rate (OCR, pmol/min/μg protein) and extracellular acidification rate (ECAR, mpH/min/μg protein) using an XF96 or XFp extracellular flux analyzer (Agilent). Mitochondrial oxidation ability of cells pretreated for 1 hour with or without 10 mM β-HB (Sigma) was evaluated using the Seahorse XF mito stress kit (Agilent). To address changes in oxidation and glycolysis upon treatment with CCG-232601, cells were pretreated overnight with vehicle or the inhibitor, and finally 10 mM β-hydroxybutyrate was added during the first injection.

[9] = system: YCC7 cell line; experiment: Cell viability assay (Cell Counting Kit-8), YCC7; assay type: cell-based, human; conditions: YCC7 gastric cancer cells, treatment alone, various concentrations, 48 hours, FIG. 1
Description: (§4) In order to evaluate the ability to inhibit the growth or metastasis of cancer cells or cancer stem cells in the examples according to the present invention, the present inventors obtained MKN1 and HS746T, which are cell lines having human gastric cancer stem cell characteristics, and SNU601, YCC7 and NCIN87 cells, which are human gastric cancer cell lines, from the American Type Culture Collection (ATCC) and the Korean Cell Line Bank (KCRB). The cell lines were cultured in different culture media and culture conditions according to ATCC's or KCRB's guidelines. […]
(§5) Each of the cell lines cultured in the Preparation Example was dispensed into a well plate at a density of 1×10^4 cells per well, and cultured overnight at 37° C. under 5% CO2. […] 100 μL of each cell culture and 10 μL of reaction buffer (CCK) were mixed together, placed in a 96-well plate, and incubated for 1 hour at room temperature, and then the absorbance at a wavelength of 450 nm was measured using a spectrophotometer (Synergy HTX Multi-Reader, BioTek, Winooski, VT, USA). At the same time, the number of cells in each sample was measured with a cell viability assay kit (Cell Counting Kit-8), and the measured value was converted so that the measured value for the same number of cells in each sample could be compared with the number of cells in the negative control group. […]

[10] = system: HS746T cell line; experiment: Transwell invasion assay, HS746T; assay type: cell-based, human; conditions: 10 μg/ml, 12 hours, Matrigel transwell, FIG. 3
Description: (§6) Transwell invasion assay was performed with or without CCG-232601 treatment. The invasion ability was measured using a 6.5-mm transwell with an 8.0 μm-pore polycarbonate membrane insert (Corning) after coating with Matrigel (Corning) diluted to 0.67 μg/μl with serum-free medium. Then, cells (2×10^4 cells/well) were suspended in 200 μL of a serum-free medium with vehicle or in 10 μg/ml of CCG-232601, and 1,000 μL of culture medium containing 10% FBS was added to the lower chamber. After 12 hours, the migrated cells were stained with 0.2% crystal violet and observed under an optical microscope. The average number of cells that penetrated the membrane was calculated with ImageJ (NIH) from three randomly selected high-power fields and from two independent experiments, and the results are shown in FIG. 3.

[11] = system: HS746T cell line; experiment: Oxygen consumption rate and extracellular acidification rate (Seahorse), HS746T; assay type: cell-based, human
Description: as §3

[12] = system: bleomycin-induced dermal fibrosis; conditions: administered orally to mice; cited from earlier work
[13] = system: MKN1 cell line; experiment: Transwell invasion assay, MKN1; assay type: cell-based, human; conditions: MKN1, 10 μg/ml, 12 hours, Matrigel transwell, FIG. 3
Description: as §6

[14] = system: NCIN87 cell line; experiment: Cell viability assay (Cell Counting Kit-8), NCIN87; assay type: cell-based, human; conditions: NCIN87 gastric cancer cells, treatment alone, various concentrations, 48 hours, FIG. 1
Description: as §4, §5

O=C(Nc1ccc(Cl)cc1)C1CCCN(C(=O)c2cccc(-c3ccco3)c2)C1 (centres unmarked) [CCG-203971, N-(4-chlorophenyl)-1-(3-(furan-2-yl)benzoyl)piperidine-3-carboxamide]
antitumor effect (number of living cells) ([1]; HS746T): significantly improved antitumor effect | matrix stiffness and TGF-β-mediated fibrogenesis [2]: inhibits both matrix stiffness and TGF-β-mediated fibrogenesis | anti-fibrotic activity [3]: exhibits anti-fibrotic activity | anti-fibrotic activity [4]: exhibits anti-fibrotic activity

O=C(Nc1ccc(Cl)cc1)C1CN(C(=O)c2cccc(-c3ccco3)c2)CC(F)(F)C1 (centres unmarked) [CCG-222740, N-(4-Chlorophenyl)-5,5-difluoro-1-(3-(furan-2-yl)benzoyl)piperidine-3-carboxamide]
antitumor effect (number of living cells) ([1]; HS746T): significantly improved antitumor effect | expression of alpha smooth muscle actin protein [5]: prevent the expression of alpha smooth muscle actin protein | scar tissue formation [6]: effectively prevent scar tissue formation

O=C(Nc1ccc(Cl)cc1)C1CN(C(=O)c2cccc(-c3ccncc3)c2)CC(F)(F)C1 (centres unmarked) [CCG-232601, N-(4-chlorophenyl)-5,5-difluoro-1-(3-(pyridin-4-yl)benzoyl)piperidine-3-carboxamide]
cell viability lower than in the negative control group and the cisplatin-only group ([7]; MKN1, 5 μg/ml administered alone, CCK-8, FIG. 6): 20% | antitumor effect (cell viability) [7]: significantly improved antitumor effects | extracellular acidification rate (ECAR) versus oxygen consumption rate (OCR) ([8]; MKN1, pretreated overnight, 10 mM β-hydroxybutyrate at first injection, FIG. 2): the glycolysis ECAR was higher than OCR | sensitivity to glucose deprivation ([8]; gastric cancer stem cells (MKN1)): greatly increased the sensitivity to glucose deprivation | antitumor effect (cell viability) [1]: significantly improved antitumor effects | antitumor effect (cell viability) [9]: exhibited antitumor effects | invasion and metastasis (cells that penetrated the membrane) [10]: reduced the invasion and metastasis | extracellular acidification rate (ECAR) versus oxygen consumption rate (OCR) ([11]; HS746T, pretreated overnight, 10 mM β-hydroxybutyrate at first injection, FIG. 2): the glycolysis ECAR was higher than OCR | sensitivity to glucose deprivation ([11]; gastric cancer stem cells (HS746T)): greatly increased the sensitivity to glucose deprivation | development of bleomycin-induced dermal fibrosis [12]: suppress the development of bleomycin-induced dermal fibrosis | invasion and metastasis (cells that penetrated the membrane) [13]: reduced the invasion and metastasis | antitumor effect (cell viability) [14]: exhibited antitumor effects

N.N.[Cl][Pt][Cl] [cisplatin]
drug sensitivity upon cisplatin (CDDP) treatment ([7]; MKN1, FIG. 4): exhibited resistance to cisplatin | antitumor effect (cell viability) [7]: did not exhibit antitumor effects | drug sensitivity lower than that of the cancer cell lines ([7]; MKN1 versus SNU601 and NCIN87, cisplatin, FIG. 4): 20 to 40% | antitumor effect (cell viability) [1]: did not exhibit antitumor effects | drug sensitivity lower than that of the cancer cell lines ([1]; HS746T versus SNU601 and NCIN87, cisplatin, FIG. 4): 20 to 40% | drug sensitivity upon cisplatin (CDDP) treatment ([1]; HS746T, FIG. 4): exhibited resistance to cisplatin | antitumor effect (number of living cells) ([1]; HS746T): did not exhibit an antitumor effect
